{"source": "patent US8241863B2", "about": "“Identification of an evolutionarily conserved pathway mediating transrepression of inflammatory response genes by nuclear receptors” (The Regents of the University of California, priority 2005, dated 2012)", "test_system": "PPARγ-sensitive genes", "assay": "Microarray of primary macrophages transfected with control or NCoR siRNA", "assay_type": "cell-based", "details": "NCoR siRNA vs control siRNA", "procedure": "To determine how widely the SUMOylation/NCoR-dependent pathway is utilized by PPARγ to repress inflammatory response genes, microarray studies were performed in primary macrophages transfected with control siRNAs or siRNAs directed against NCoR mRNA."}
{"smiles": "CN(CCOc1ccc(CC2SC(=O)NC2=O)cc1)c1ccccn1", "note": "(stereo not shown) [rosiglitazone]", "values": [{"measurement": "PPARγ-sensitive genes whose repression by ligand was abolished by knockdown of NCoR", "result": 80, "unit": "%"}]}
